Reference: US8293777B2, “Angiotensin II receptor antagonists” (Merck Sharp & Dohme, Corp., priority 2008, dated 2012)

What was measured:
[1] = tested on: conscious telemetered dogs; experiment: Systolic blood pressure lowering, oral administration to conscious telemetered dogs; assay type: in vivo; settings: orally administered at 3 mpk
Excerpt: Several examples were studied for systolic blood pressure lowering when orally administered to conscious telemetered dogs at 3 mpk (see Data Table 1).

[2] = tested on: isolated rabbit thoracic aorta preparations; experiment: Vessel relaxation in isolated rabbit thoracic aorta preparations; assay type: cell-based; settings: Oryctolagus cuniculus; rabbit aortic rings precontracted with noradrenaline, functional endothelium
Method: The ability of the compounds to induce vasorelaxation was tested in vitro in isolated rabbit thoracic aorta preparations (Wanstall J. C. et al., Br. J. Pharmacol., 134:463-472, 2001). Male New Zealand rabbits were anaesthetized with thiopental-Na (50 mg/kg, iv), sacrificed by exsanguinations and then the thorax was opened and the aorta dissected. Aortic ring preparations (4 mm in length) were set up in physiological salt solution (PSS) at 37° C. in small organ chambers (5 ml). The composition of PSS was (mM): NaCl 130, NaHCO3 14.9, KH2PO4 1.2, MgSO4 1.2, HEPES 10, CaCl2, ascorbic acid […] and glucose 1.1 (95% O2/5% CO2; pH 7.4). Each ring was mounted under 2 g passive tension. Isometric tension was recorded with a Grass transducer (Grass FT03) attached to a BIOPAC MP150 System. Preparations were allowed to equilibrate for 1 h, and then contracted submaximally with noradrenaline (NA, 1 μM) and, when the contraction was stable, acetylcholine (ACh, 10 μM) was added. A relaxant response to ACh indicated the presence of a functional endothelium. […] When a stable precontraction was reached, a cumulative concentration-response curve to either of the vasorelaxant agents was obtained in the presence of a functional endothelium. Each arterial ring was exposed to only one combination of inhibitor and vasorelaxant. […]
Example 2 was evaluated for vessel relaxation.

Row | EC50 [2] [µM] | SMILES | Approximate change in systolic blood pressure ([1]; 1-6 h, 3 mg/kg) [mm Hg] | Approximate change in systolic blood pressure ([1]; 6-12 h, 3 mg/kg) [mm Hg] | Approximate change in systolic blood pressure ([1]; 12-18 h, 3 mg/kg) [mm Hg] | Approximate change in systolic blood pressure ([1]; 1-6 h) [mm Hg] | Approximate change in systolic blood pressure ([1]; 6-12 h) [mm Hg] | Approximate change in systolic blood pressure ([1]; 12-18 h) [mm Hg]
1 |  | CCOc1nc2cccc(C(=O)OC(C)OC(=O)[C@@H]3C[C@H](OC)[C@@H](O[N+](=O)[O-])C3)c2n1Cc1ccc(-c2ccccc2-c2nnn[nH]2)cc1 (stereo partly drawn) [Example 2, D1, 1-({[(1R,3S,4S)-3-methoxy-4-(nitrooxy)cyclopentyl]carbonyl}oxy)ethyl 2-ethoxy-1-{[2′-(1H-tetrazol-5-yl)biphenyl-4-yl]methyl}-1H-benzimidazole-7-carboxylate] | −15 | −11 | −1 |  |  | 
2 | > 25 | CCOc1nc2cccc(C(=O)OC(C)OC(=O)[C@@H]3C[C@H](OC)[C@@H](O[N+](=O)[O-])C3)c2n1Cc1ccc(-c2ccccc2-c2nnn[nH]2)cc1 (stereo partly drawn) [Example 2, D2, 1-({[(1R,3S,4S)-3-methoxy-4-(nitrooxy)cyclopentyl]carbonyl}oxy)ethyl 2-ethoxy-1-{[2′-(1H-tetrazol-5-yl)biphenyl-4-yl]methyl}-1H-benzimidazole-7-carboxylate] | −19 | −12 | −5 |  |  | 
3 |  | CCCCC(=O)N(Cc1ccc(-c2ccccc2-c2nnn[nH]2)cc1)[C@H](C(=O)O[C@@H](C)OC(=O)[C@@H]1C[C@H](OC)[C@@H](O[N+](=O)[O-])C1)C(C)C [Example 5, (1S)-1-({[(1R,3S,4S)-3-methoxy-4-(nitrooxy)cyclopentyl]carbonyl}oxy)ethyl N-pentanoyl-N-{[2′-(1H-tetrazol-5-yl)biphenyl-4-yl]methyl}-L-valinate] |  |  |  | −8 | −2 | 8
4 |  | CCCCc1nc(Cl)c(C(=O)O[C@H](C)OC(=O)[C@@H]2C[C@H](OC)[C@@H](O[N+](=O)[O-])C2)n1Cc1ccc(-c2ccccc2-c2nnn[nH]2)cc1 [Example 7] |  |  |  | −9 | −1 | 2
